Laboratory results as given in patent US20100216753A1, “CONTROLLED RELEASE OF DRUGS INTO/THROUGH THE SKIN” (Galderma S.A., priority 2005, published 2010).

Test: Distribution of the drug in human skin (Franz' cells)
Format: in vitro ADME
Settings: 16 hours after application on a human skin (Franz' cells)

With `CCC(=O)O[C@]1(C(=O)CCl)[C@@H](C)C[C@H]2[C@@H]3CCC4=CC(=O)C=C[C@]4(C)[C@@]3(F)[C@@H](O)C[C@@]21C` [Clobetasol-17-propionate] the “Skin distribution of the drug” value was “accumulate in the Stratum corneum”.
